Test results as given in US20200316089A1, “1,2-DIHYDRO-3H-PYRAZOL-3-ONE COMPOUNDS AND METHODS OF USING SAME” (Frequency Therapeutics, Inc., priority 2017, published 2020).

What was measured:
[1] = target: recombinant human GSK3α (Homo sapiens, UniProt P49840); assay: in vitro enzymatic assay (Kinase-Glo Max) for inhibition of GSK3α; assay type: biochemical; conditions: 10 uM ATP, 0.1 mg/ml GSKtide, 30° C. 40 minutes; read-out: Potency GSK-3alpha
Description: (§1) Enzymatic activities of compounds of the present disclosure are tested with recombinant human GSK3 using an in vitro enzymatic assay for inhibition GSK3α and GSK3β.
(§2) The assay was performed using Kinase-Glo Max luminescence kinase assay kit (Promega). It measures kinase activity by quantitating the amount of ATP remaining in solution following a kinase reaction. The luminescent signal from the assay is correlated with the amount of ATP present and is inversely correlated with the amount of kinase activity. The compounds were diluted in 10% DMSO) and 5 μl of the dilution was added to a 50 μl reaction so that the final concentration of DMSO is 1% in all of reactions. The enzymatic reactions were conducted at 30° C. for 40 minutes. […] After the enzymatic reaction, 50 μl of Kinase-Glo Max Luminescence kinase assay solution (Promega) was added to each reaction and incubate the plate for 15 minutes at room temperature. Luminescence signal was measured using a BioTek Synergy 2 microplate reader.
(§3) Kinase activity assays were performed in duplicate at each concentration. The luminescence data were analyzed using the computer software, Graphpad Prism. The difference between luminescence intensities in the absence of Kinase (Lut) and in the presence of Kinase (Luc) was defined as 100% activity (Lut−Luc). […]

[2] = target: recombinant human GSK3β (Homo sapiens, UniProt P49841); assay: in vitro enzymatic assay (Kinase-Glo Max) for inhibition of GSK3β; assay type: biochemical; conditions: 10 uM ATP
Description: as §1, §2, §3

[3] = system: Lgr5-positive cochlear cells; assay: Expansion of Lgr5-positive cells (cochlear stem cell expansion, Lgr5-GFP flow cytometry); assay type: cell-based; conditions: 240 h; Lgr5-GFP mouse cochlear cells, 10 days in culture; read-out: Potency (Lgr5-positive cell expansion)
Description: Lgr5-EGFP-IRES-Cre-ER mice (Barker et al., 2007) (http://jaxmice.jax.org/strain/008875.html) are used to analyze the effects of small molecules on cochlear stem cell expansion.
Isolation of stem cells from the inner ear: All animal studies are conducted under an approved institutional protocol according to National Institutes of Health guidelines. For experiments with neonatal mice (postnatal days 1-3), the cochleae are dissected in HBSS and the organ of Corti are separated from the stria vascularis and the modiolus. The organs of Corti are then treated with Cell Recovery Solution (Corning) for 1 h to separate cochlear epithelium from the underlying mesenchyme. Epithelia are then collected and treated with TrypLE (Life Technologies) for 15-20 minutes at 37° C. Single cells obtained by mechanical trituration are filtered (40 μm) and suspended in Matrigel (Corning) for 3D culture. […]
Lgr5-positive cells are quantified after 10 days (D10) in culture in multiple conditions. […] The cells are then stained with propidium iodide (PI) and are analyzed using a flow cytometer for Lgr5-GFP expression. The number of GFP-positive cells and the percentage of GFP-positive cells are quantified.

recombinant human GSK3β, sequence (P49841 whole entry): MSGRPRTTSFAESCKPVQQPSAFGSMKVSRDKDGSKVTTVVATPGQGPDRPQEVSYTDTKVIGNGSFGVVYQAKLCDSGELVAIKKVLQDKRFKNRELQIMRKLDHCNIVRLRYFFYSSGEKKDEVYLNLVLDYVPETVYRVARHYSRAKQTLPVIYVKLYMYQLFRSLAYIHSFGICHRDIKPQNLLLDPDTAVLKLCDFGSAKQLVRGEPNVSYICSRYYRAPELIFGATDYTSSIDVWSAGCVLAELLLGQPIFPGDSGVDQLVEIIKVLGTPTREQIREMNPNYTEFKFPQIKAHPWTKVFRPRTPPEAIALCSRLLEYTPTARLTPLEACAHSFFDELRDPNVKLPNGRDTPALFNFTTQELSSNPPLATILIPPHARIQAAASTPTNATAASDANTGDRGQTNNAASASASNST
recombinant human GSK3α, sequence (P49840 whole entry): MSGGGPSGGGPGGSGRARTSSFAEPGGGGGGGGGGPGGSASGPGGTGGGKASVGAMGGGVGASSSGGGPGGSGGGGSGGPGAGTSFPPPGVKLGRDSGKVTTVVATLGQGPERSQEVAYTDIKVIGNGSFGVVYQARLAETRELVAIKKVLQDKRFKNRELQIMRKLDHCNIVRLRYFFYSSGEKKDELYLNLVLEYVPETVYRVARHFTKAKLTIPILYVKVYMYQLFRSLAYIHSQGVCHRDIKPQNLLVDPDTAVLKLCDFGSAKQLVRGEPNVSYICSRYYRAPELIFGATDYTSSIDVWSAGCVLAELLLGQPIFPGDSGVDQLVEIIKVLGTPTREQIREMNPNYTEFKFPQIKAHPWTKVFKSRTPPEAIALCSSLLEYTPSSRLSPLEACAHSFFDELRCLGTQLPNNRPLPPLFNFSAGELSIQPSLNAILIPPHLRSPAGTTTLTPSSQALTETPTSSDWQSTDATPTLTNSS

IC50 [1] [µM] | inhibition at 10 µM ([2]; at 10 uM compound, read-out: Potency GSK-3beta: % inhibition) [%] | EC50 [3] [µM] | IC50 ([2]; 0.1 mg/ml GSKtide, 30° C. 40 minutes, read-out: Potency GSK-3beta) [µM] | Structure (SMILES)
10 | 34 | > 10 |  | O=C(N1CCCCC1)N1CCn2cc(-c3c(-c4cnc5ccccn45)[nH][nH]c3=O)c3cc(F)cc(c32)C1 [Compound I-52]
0.348 |  | > 10 | 0.706 | O=C(N1CCCCC1)N1CCn2cc(-c3[nH][nH]c(=O)c3-c3cnc4ccccn34)c3cc(F)cc(c32)C1 [Compound I-4]
